Measured values from patent US20260042801A1, “COMPOSITIONS AND METHODS FOR DYE-BOUND CYCLIZED PEPTIDES FOR MEDICAL USE” (The Texas A&M University System, priority 2022, published 2026).

Target: T1, TrkB (Homo sapiens, UniProt Q16620)
T1 construct: expressed in transfected cells; host or cells: HEK293 (TrkB-HEK293)
Assay: Cell-associated fluorescence saturation binding, TrkB-HEK293 cells
Settings: 2.5 h, with and without 0.6 nM BDNF
Procedure: FIG. 2: 5c(i) binds to TrkB and TrkC receptors. Transfected cell lines that are Trk positive cells (TrkB-HEK293 and TrkC-NIH/3T3) and non-transfected cell lines that are Trk negative cells (HEK293 and NIH/3T3) were seeded approximately 2,000 cells/well in a 96-well plate and incubated for 24 hours. The cells were treated with a serial dilution of compound (0, 10, 25, 50, 100, 200, 500, and 1000 nM) in serum-free media (SFM) with and without A) 0.6 nM of BDNF (TrkB-HEK293 and HEK293) and B) 0.2 nM of NT-3 (TrkC-NIH/3T3 and NIH/3T3) for 2.5 h. After that, the cells were washed with PBS once to remove unbound compounds and dissolved in 1% (w/v) aqueous sodium dodecyl sulfate. Cell-associated fluorescence was then determined by measuring the emission of the resulting solution upon λex (540/25 nm) and λem (620/40 nm) using Agilent BioTek Synergy H4 Hybrid Microplate Reader. Kd was calculated by GraphPad Prism 9 using Binding saturation (One site—Specific binding).
Transfected cell lines that are Trk positive cells (TrkA-HeLa, TrkB-HEK293, and TrkC-NIH/3T3) and non-transfected cell lines that are Trk negative cells (HeLa, HEK293, and NIH/3T3) were seeded at 2,000 cells/well in a 96-well plate (0.32 cm^2 growth area) and incubated inside a 5% CO2 incubator at 37° C. for 24 hours. […] The dissociation constant (Kd) was calculated using binding saturation (One site—Specific binding).

T1 sequence (Q16620 32-822, species assumed): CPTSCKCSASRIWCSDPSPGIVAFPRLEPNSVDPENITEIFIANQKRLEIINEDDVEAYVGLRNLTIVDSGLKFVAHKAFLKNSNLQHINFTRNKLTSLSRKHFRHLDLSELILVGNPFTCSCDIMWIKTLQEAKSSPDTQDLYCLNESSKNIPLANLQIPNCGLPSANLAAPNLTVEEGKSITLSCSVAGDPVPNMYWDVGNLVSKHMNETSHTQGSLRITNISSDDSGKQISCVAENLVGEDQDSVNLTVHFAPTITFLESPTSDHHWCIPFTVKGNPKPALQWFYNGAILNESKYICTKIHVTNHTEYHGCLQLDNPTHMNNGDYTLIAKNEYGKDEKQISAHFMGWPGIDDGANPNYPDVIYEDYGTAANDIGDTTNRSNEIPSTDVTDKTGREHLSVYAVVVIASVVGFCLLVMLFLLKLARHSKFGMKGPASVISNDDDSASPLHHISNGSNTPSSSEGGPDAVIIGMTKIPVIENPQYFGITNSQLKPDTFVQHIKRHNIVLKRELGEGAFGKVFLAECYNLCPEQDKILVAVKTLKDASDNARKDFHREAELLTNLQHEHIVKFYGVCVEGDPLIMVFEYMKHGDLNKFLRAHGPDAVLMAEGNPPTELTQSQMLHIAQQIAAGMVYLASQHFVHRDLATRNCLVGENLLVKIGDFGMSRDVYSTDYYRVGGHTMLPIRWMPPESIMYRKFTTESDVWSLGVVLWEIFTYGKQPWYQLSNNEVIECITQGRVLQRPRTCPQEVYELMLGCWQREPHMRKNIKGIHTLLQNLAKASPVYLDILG

## C-DIRG-C BODIPY® (fluorescent dye) [5c(i)]
  affinity for TrkB (Kd): low nanomolar affinity
